{"source": "paper PMC4604124", "about": "“In Vitro Characterization of the Pharmacological Properties of the Anti-Cancer Chelator, Bp4eT, and Its Phase I Metabolites” (PLoS ONE, 2015)", "key": {"[1]": {"test_system": "HCT116 human colorectal carcinoma cells", "assay": "MTT cytotoxicity assay, HCT116 cells", "type": "cell-based", "conditions": "2 000 b/j, sheet Z-Bp4eS; for IC50: MTT", "how_it_was_run": "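After 24 h attachment, the tumour lines (MCF-7 at 5,000; HCT116 and A549 at 2,000 cells/well) receive compounds directly, whereas H9c2 cardiomyoblasts (10,000 cells/well) first spend 24 h in serum- and pyruvate-free DMEM. Treatment lasts 72 h at 37°C in 0.1% DMSO, followed by MTT staining.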"}, "caspases 3/7": {"test_system": "caspases 3/7", "assay": "Caspase activity, luminescent kit, caspases 3/7", "type": "cell-based, human", "conditions": "for kaspáza (3) a 7, raw signal / kaspáza (3) a 7, signal / viabilita: individual experiments by date; for kaspáza (3) a 7, raw signal, průměry / kaspáza (3) a 7, % kontroly / kaspáza (3) a 7, signal / viabilita, průměry: mean; for kaspáza (3) a 7, % kontroly / kaspáza (3) a 7, signal / viabilita / kaspáza (3) a 7, signal / viabilita, průměry: normalised to viability"}, "caspase 9": {"test_system": "caspase 9", "assay": "Caspase activity, luminescent kit, caspase 9;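 for all read-outs here: MCF-7 cells treated at 100 nM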", "type": "cell-based, human", "conditions": "for kaspáza 9, raw signal / kaspáza 9, signal / viabilita: individual experiments by date; for kaspáza 9, raw signal, průměry / kaspáza 9, % kontroly / kaspáza 9, signal / viabilita, průměry: mean; for kaspáza 9, % kontroly / kaspáza 9, signal / viabilita / kaspáza 9, signal / viabilita, průměry: normalised to viability"}}, "note": "Where “and” joins values, the source holds several entries; their conditions need not be identical. Equal entries are not always repeated.", "data": [{"compound": "CCNC(=O)NN=C(c1ccccc1)c1ccccn1", "note": "[Z-Bp4eS, 2-benzoylpyridine 4-ethylsemicarbazone]", "values": [{"measurement": "MTT, relative to control (0 = 100)", "setting": "[1]; HCT116, 3 μM, průměr (mean)", "value": 95.04}, {"measurement": "MTT, relative to control (0 = 100)", "setting": "[1]; HCT116, 3 μM, single experiment (date)", "value": "90.3505 and 96.7506 and 97.8429 and 95.2259"}, {"measurement": "MTT, relative to control (0 = 100)", "setting": "[1]; HCT116, 10 μM, průměr (mean)", "value": 92.27}, {"measurement": "MTT, relative to control (0 = 100)", "setting": "[1]; HCT116, 10 μM, single experiment (date)", "value": "90.1105 and 89.2672 and 98.2602 and 91.4504"}, {"measurement": "MTT, relative to control (0 = 100)", "setting": "[1]; HCT116, 30 μM, průměr (mean)", "value": 89.97}, {"measurement": "MTT, relative to control (0 = 100)", "setting": "[1]; HCT116, 30 μM, single experiment (date)", "value": "84.3315 and 84.8984 and 97.3042 and 93.3561"}, {"measurement": "MTT, relative to control (0 = 100)", "setting": "[1]; HCT116, 100 μM, průměr (mean)", "value": 81.81}, {"measurement": "MTT, relative to control (0 = 100)", "setting": "[1]; HCT116, 100 μM, single experiment (date)", "value": "79.36 and 76.1483 and 84.5307 and 87.1986"}, {"measurement": "MTT, relative to control (0 = 100)", "setting": "[1]; HCT116, 300 μM, průměr (mean)", "value": 62.81}, {"measurement": "MTT, relative to control (0 = 100)", "setting": "[1]; HCT116, 300 μM, single experiment (date)", "value": "53.0737 and 67.0105 and 63.0816 and 68.093"}, {"measurement": "MTT, relative to control (0 = 100)", "setting": "[1]; HCT116, 1000 μM, průměr (mean)", "value": 14.99}, {"measurement": "MTT, relative to control (0 = 100)", "setting": "[1]; HCT116, 1000 μM, single experiment (date)", "value": "11.223 and 18.8694 and 13.6196 and 16.2655"}, {"measurement": "IC50", "setting": "[1]; HCT116, single experiment (date)", "value": "350 µM and 338 µM and 388 µM"}, {"measurement": "IC50", "setting": "[1]; Homo sapiens, HCT-116, HCT116, průměr (mean)", "value": 337, "unit": "µM"}, {"measurement": "IC50", "setting": "[1]; Homo sapiens, HCT-116, HCT116, single experiment (date)", "value": 272, "unit": "µM"}, {"measurement": "kaspáza (3) a 7, raw signal", "setting": "caspases 3/7; 3 hodiny", "value": "1797.5 and 1540 and 1728.5 and 1382"}, {"measurement": "kaspáza (3) a 7, raw signal, průměry", "setting": "caspases 3/7; 3 hodiny", "value": 1612}, {"measurement": "kaspáza (3) a 7, % kontroly", "setting": "caspases 3/7; 3 hodiny", "value": 100.57, "unit": "% kontroly"}, {"measurement": "kaspáza (3) a 7, signal / viabilita", "setting": "caspases 3/7; 3 hodiny", "value": "18.4535 and 15.81 and 17.7452 and 14.1879"}, {"measurement": "kaspáza (3) a 7, signal / viabilita, průměry", "setting": "caspases 3/7; 3 hodiny", "value": 16.5491}, {"measurement": "kaspáza (3) a 7, raw signal", "setting": "caspases 3/7; 24 hodin", "value": "2520 and 2115 and 2668.5 and 2356.5"}, {"measurement": "kaspáza (3) a 7, raw signal, průměry", "setting": "caspases 3/7; 24 hodin", "value": 2415}, {"measurement": "kaspáza (3) a 7, % kontroly", "setting": "caspases 3/7; 24 hodin", "value": 106.11, "unit": "% kontroly"}, {"measurement": "kaspáza (3) a 7, signal / viabilita", "setting": "caspases 3/7; 24 hodin", "value": "25.3376 and 21.2655 and 26.8307 and 23.6936"}, {"measurement": "kaspáza (3) a 7, signal / viabilita, průměry", "setting": "caspases 3/7; 24 hodin", "value": 24.2818}, {"measurement": "kaspáza (3) a 7, raw signal", "setting": "caspases 3/7; 72 hodin", "value": "7018 and 6964.5 and 7418.5 and 7469"}, {"measurement": "kaspáza (3) a 7, raw signal, průměry", "setting": "caspases 3/7; 72 hodin", "value": 7217.5}, {"measurement": "kaspáza (3) a 7, % kontroly", "setting": "caspases 3/7; 72 hodin", "value": 104.65, "unit": "% kontroly"}, {"measurement": "kaspáza (3) a 7, signal / viabilita", "setting": "caspases 3/7; 72 hodin", "value": "75.0267 and 74.4548 and 79.3083 and 79.8482"}, {"measurement": "kaspáza (3) a 7, signal / viabilita, průměry", "setting": "caspases 3/7; 72 hodin", "value": 77.1595}, {"measurement": "kaspáza 9, raw signal", "setting": "caspase 9; 3 hodiny", "value": "6118 and 2344.5 and 3460 and 2039.5"}, {"measurement": "kaspáza 9, raw signal, průměry", "setting": "caspase 9; 3 hodiny", "value": 3490.5}, {"measurement": "kaspáza 9, % kontroly", "setting": "caspase 9; 3 hodiny", "value": 100.62, "unit": "% kontroly"}, {"measurement": "kaspáza 9, signal / viabilita", "setting": "caspase 9; 3 hodiny", "value": "62.8087 and 24.0691 and 35.5211 and 20.938"}, {"measurement": "kaspáza 9, signal / viabilita, průměry", "setting": "caspase 9; 3 hodiny", "value": 35.8342}, {"measurement": "kaspáza 9, raw signal", "setting": "caspase 9; 24 hodin", "value": "4532 and 2581 and 5427.5 and 4043"}, {"measurement": "kaspáza 9, raw signal, průměry", "setting": "caspase 9; 24 hodin", "value": 4145.88}, {"measurement": "kaspáza 9, % kontroly", "setting": "caspase 9; 24 hodin", "value": 101.82, "unit": "% kontroly"}, {"measurement": "kaspáza 9, signal / viabilita", "setting": "caspase 9; 24 hodin", "value": "45.5674 and 25.9509 and 54.5713 and 40.6507"}, {"measurement": "kaspáza 9, signal / viabilita, průměry", "setting": "caspase 9; 24 hodin", "value": 41.6851}, {"measurement": "kaspáza 9, raw signal", "setting": "caspase 9; 72 hodin", "value": "21491.5 and 17542 and 23160 and 18381"}, {"measurement": "kaspáza 9, raw signal, průměry", "setting": "caspase 9; 72 hodin", "value": 20143.6}, {"measurement": "kaspáza 9, % kontroly", "setting": "caspase 9; 72 hodin", "value": 100.13, "unit": "% kontroly"}, {"measurement": "kaspáza 9, signal / viabilita", "setting": "caspase 9; 72 hodin", "value": "229.757 and 187.535 and 247.595 and 196.504"}, {"measurement": "kaspáza 9, signal / viabilita, průměry", "setting": "caspase 9; 72 hodin", "value": 215.348}]}]}
